Here are results for two molecules from patent US7700552B2, “Macrocyclic inhibitors of hepatitis C virus” (Medivir AB, priority 2005, dated 2010).

The structures appear in SMILES notation. pEC50, pKi: −log10 of the molar value.

Assay [1] addresses T1, full-length hepatitis C NS3 protease enzyme with NS4A cofactor (HCV NS3/4A protease complexes) (Hepatitis C virus genotype 1a, UniProt P27958).
T1 construct: full-length hepatitis C NS3 protease enzyme
Kind of assay: HCV NS3/4A protease inhibition assay (enzymatic). The format is biochemical. Conditions: full-length NS3 1 nM, 25 μM NS4A cofactor, 0.5 μM depsipeptide substrate, 30° C., competitive inhibition model. As for the experimental part:
[Landro, 1997 #Biochem 36 9340-9348]. […] The solutions were stored at −20° C. between measurements.
The final concentration of DMSO in the assay sample is adjusted to 3.3%. The rate of hydrolysis is corrected for inner filter effects according to published procedures. [Liu, 1999 Analytical Biochemistry 267 331-335]. […] A minimum of two replicates are performed for all measurements.

For assay [2], the system named is HCV replicons (NS3-NS5B regions of HCV type 1b) in Huh-7 luc/neo cells. Kind of assay: HCV replicon assay (Huh-Luc cells, luciferase readout). The format is cell-based. Conditions: Hepatitis C virus, Huh-7, 72 h, HCV type 1b replicon, three days incubation, luciferase activity. The source says:
The compounds of formula (I) were examined for activity in the inhibition of HCV RNA replication in a cellular assay. […] The cellular assay was based on a bicistronic expression construct, as described by Lohmann et al. (1999) Science vol. 285 pp. 110-113 with modifications described by Krieger et al. (2001) Journal of Virology 75: 4614-4624, in a multi-target screening strategy. In essence, the method was as follows.
The assay utilized the stably transfected cell line Huh-7 luc/neo (hereafter referred to as Huh-Luc). This cell line harbors an RNA encoding a bicistronic expression construct comprising the wild type NS3-NS5B regions of HCV type 1b translated from an Internal Ribosome Entry Site (IRES) from encephalomyocarditis virus (EMCV), preceded by a reporter portion (FfL-luciferase), and a selectable marker portion (neo^R, neomycine phosphotransferase). […]
The replicon cells were plated in 384 well plates in the presence of the test and control compounds which were added in various concentrations. Following an incubation of three days, HCV replication was measured by assaying luciferase activity (using standard luciferase assay substrates and reagents and a Perkin Elmer ViewLux™ ultraHTS microplate imager). […] The inhibitory activity of the compound on luciferase activity was monitored on the Huh-Luc cells, enabling a dose-response curve for each test compound.
A general note: In antiviral work, replicon cells carry a viral genome segment that copies itself.

T1 sequence (P27958 1027-1657, one chain of several): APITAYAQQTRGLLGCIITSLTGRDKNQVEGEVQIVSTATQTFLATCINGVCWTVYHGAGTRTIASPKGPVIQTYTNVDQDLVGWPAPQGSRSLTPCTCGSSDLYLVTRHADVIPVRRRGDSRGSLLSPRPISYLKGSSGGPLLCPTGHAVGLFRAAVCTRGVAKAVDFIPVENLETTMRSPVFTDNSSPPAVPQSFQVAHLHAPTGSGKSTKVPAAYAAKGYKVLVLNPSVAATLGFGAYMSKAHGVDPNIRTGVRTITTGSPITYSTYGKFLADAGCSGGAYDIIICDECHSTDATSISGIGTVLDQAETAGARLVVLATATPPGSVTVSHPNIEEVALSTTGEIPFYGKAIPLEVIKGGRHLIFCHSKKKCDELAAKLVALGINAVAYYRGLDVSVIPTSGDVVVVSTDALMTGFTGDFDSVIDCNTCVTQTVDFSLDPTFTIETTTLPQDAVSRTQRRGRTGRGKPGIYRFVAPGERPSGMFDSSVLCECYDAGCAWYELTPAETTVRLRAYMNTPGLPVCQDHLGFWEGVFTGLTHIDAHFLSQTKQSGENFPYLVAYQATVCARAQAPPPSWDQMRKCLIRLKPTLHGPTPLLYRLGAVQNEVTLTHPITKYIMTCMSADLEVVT

The term pKi denotes the Ki on a negative log10 scale, so that one unit is a factor of ten. Read a high pKi as a small Ki. By pEC50 is commonly meant −log10 of the EC50, conventionally taken in molar units. Molecule `COc1ccc2c(O[C@@H]3C[C@H]4C(=O)N[C@]5(C(=O)O)CC5/C=C\CCCCN(N(C)C)C(=O)[C@@H]4C3)cc(-c3ccccc3)nc2c1` (stereo partly shown) [Example 88, 13-Dimethylamino-17-(7-methoxy-2-phenyl-quinolin-4-yloxy-2,14-dioxo-3,13-diaza-tricyclo[13.3.0.0*4,6*]octadec-7-ene-4-carboxylic acid] gave a pKi in assay [1] of 5.70 to 7.00. The molecule also gave a pEC50 in assay [2] of 5.00 to 6.00.

As for `COc1ccc2c(O[C@@H]3C[C@H]4C(=O)N[C@]5(C(=O)NS(=O)(=O)C6CC6)CC5/C=C\CCCCN(N(C)C)C(=O)[C@@H]4C3)cc(-c3ccccc3)nc2c1` (stereo partly shown) [Example 89, Cyclopropanesulphonic acid [13-dimethylamino-17-(7-methoxy-2-phenyl-quinolin-4-yloxy)-2,14-dioxo-3,13-diaza-tricyclo[13.3.0.0*4,6*]octadec-7-ene-4-carbonyl]-amide], the pKi in assay [1] is 8.31 to 10.00. The same molecule gave a pEC50 in assay [2] of 7.31 to 9.30.
